Values after ≈ are worked out from the molar mass of the structure shown. Active and inactive are the calls of the source. The rule behind the calls is not given here.
Legend:
[1] = Inhibition of influenza A/Guizhou/54/89(H3N2) virus sialidase after 10 mins by fluorometric assay; design: species or system Influenza A virus (A/Guizhou/54/89(H3N2))
MDCK = experiment: Cytotoxicity in influenza A/PR/8/34 virus infected MDCK cells after 3 days by MTT assay; format: cell-based, Canis lupus familiaris; details: dog, 72 h
[2] = Inhibition of influenza A/PR/8/34(H1N1) virus sialidase after 10 mins by fluorometric assay; design: species or system Influenza A virus (A/Puerto Rico/8/1934(H1N1))
[3] = Inhibition of influenza B/Ibaraki/2/85 virus sialidase after 10 mins by fluorometric assay; design: species or system Influenza B virus (B/Ibaraki/2/85)
[4] = system: Influenza A virus (A/Puerto Rico/8/1934(H1N1)); experiment: Antiinfluenza virus activity in mouse infected with influenza virus A/PR/8/34(H1N1) assessed as survival rate at 0.5 mg/kg administered intranasally after 21 days; format: functional, BALB/c
Influenza A virus [5] = experiment: Antiinfluenza virus activity in mouse infected with influenza virus A/PR/8/34(H1N1) assessed as survival rate at 0.5 mg/kg administered intranasally after 10 days; format: functional, A/Puerto Rico/8/1934(H1N1)
Influenza A virus [6] = experiment: Inhibition of influenza virus A/PR/8/34(H1N1) proliferation on MDCK cells at 12.5 ug/mL; format: functional, organism-based; details: A/Puerto Rico/8/1934(H1N1)

| SMILES | IC50 [1] [mg/L] | Activity (MDCK) | IC50 [2] [mg/L] | IC50 [3] [mg/L] | Activity [4] [%] | Activity (Influenza A virus [5]) [%] | Activity (Influenza A virus [6]) |
| --- | --- | --- | --- | --- | --- | --- | --- |
| COC(=O)[C@@]1(Oc2cc(O)c3c(=O)cc(-c4ccc(O)cc4)oc3c2-c2cc(-c3cc(=O)c4c(O)cc(OC)cc4o3)ccc2OC)C[C@H](OC(C)=O)[C@@H](NC(C)=O)[C@H]([C@H](OC(C)=O)[C@@H](COC(C)=O)OC(C)=O)O1 (stereo in doubt; 6R) | > 10 | Non-toxic | 79.2 (≈ 76.2 µM) |  |  |  |  |
| COC(=O)[C@@]1(Oc2cc(O)c3c(=O)cc(-c4ccc(O)cc4)oc3c2-c2cc(-c3cc(=O)c4c(O)cc(OC)cc4o3)ccc2OC)C[C@H](OC(C)=O)[C@@H](NC(C)=O)[C@H]([C@H](OC(C)=O)[C@@H](COC(C)=O)OC(C)=O)O1 (stereo in doubt; 6S) | 1.1 (≈ 1.06 µM) |  | > 100 | > 100 |  |  |  |
| COC(=O)[C@@]1(Oc2ccc(-c3cc(=O)c4c(O)cc(O[C@]5(C(=O)OC)C[C@H](OC(C)=O)[C@@H](NC(C)=O)[C@H]([C@H](OC(C)=O)[C@@H](COC(C)=O)OC(C)=O)O5)c(-c5cc(-c6cc(=O)c7c(O)cc(OC)cc7o6)ccc5OC)c4o3)cc2)C[C@H](OC(C)=O)[C@@H](NC(C)=O)[C@H]([C@H](OC(C)=O)[C@@H](COC(C)=O)OC(C)=O)O1 (stereo in doubt; 7R) | 1.35 (≈ 0.892 µM) |  |  |  |  |  |  |
| COC(=O)[C@@]1(Oc2ccc(-c3cc(=O)c4c(O)cc(O[C@]5(C(=O)OC)C[C@H](OC(C)=O)[C@@H](NC(C)=O)[C@H]([C@H](OC(C)=O)[C@@H](COC(C)=O)OC(C)=O)O5)c(-c5cc(-c6cc(=O)c7c(O)cc(OC)cc7o6)ccc5OC)c4o3)cc2)C[C@H](OC(C)=O)[C@@H](NC(C)=O)[C@H]([C@H](OC(C)=O)[C@@H](COC(C)=O)OC(C)=O)O1 (stereo in doubt; 7S) | > 10 | Non-toxic | > 100 | > 100 |  |  |  |
| COc1cc(O)c2c(=O)cc(-c3ccc(OC)c(-c4c(O[C@]5(C(=O)O)C[C@H](O)[C@@H](NC(C)=O)[C@H]([C@H](O)[C@H](O)CO)O5)cc(O)c5c(=O)cc(-c6ccc(O)cc6)oc45)c3)oc2c1 (stereo in doubt; 8R) [listing 1 of 2 here] | 0.82 (≈ 0.956 µM) |  | 5.5 (≈ 6.41 µM) | 9.11 (≈ 10.6 µM) | 62.5 | 75 |  |
| COc1cc(O)c2c(=O)cc(-c3ccc(OC)c(-c4c(O[C@]5(C(=O)O)C[C@H](O)[C@@H](NC(C)=O)[C@H]([C@H](O)[C@H](O)CO)O5)cc(O)c5c(=O)cc(-c6ccc(O)cc6)oc45)c3)oc2c1 (stereo in doubt; 8R) [listing 2 of 2 here] |  |  |  |  |  |  | Active |
| COc1cc(O)c2c(=O)cc(-c3ccc(OC)c(-c4c(O[C@]5(C(=O)O)C[C@H](O)[C@@H](NC(C)=O)[C@H]([C@H](O)[C@H](O)CO)O5)cc(O)c5c(=O)cc(-c6ccc(O)cc6)oc45)c3)oc2c1 (stereo in doubt; 8S) [listing 1 of 2 here] | 0.99 (≈ 1.15 µM) | Non-toxic | 6.35 (≈ 7.4 µM) | 8.64 (≈ 10.1 µM) | 56 | 78 |  |
| COc1cc(O)c2c(=O)cc(-c3ccc(OC)c(-c4c(O[C@]5(C(=O)O)C[C@H](O)[C@@H](NC(C)=O)[C@H]([C@H](O)[C@H](O)CO)O5)cc(O)c5c(=O)cc(-c6ccc(O)cc6)oc45)c3)oc2c1 (stereo in doubt; 8S) [listing 2 of 2 here] |  |  |  |  |  |  | Active |
| COc1cc(O)c2c(=O)cc(-c3ccc(OC)c(-c4c(O[C@]5(C(=O)O)C[C@H](O)[C@@H](NC(C)=O)[C@H]([C@H](O)[C@H](O)CO)O5)cc(O)c5c(=O)cc(-c6ccc(O[C@]7(C(=O)O)C[C@H](O)[C@@H](NC(C)=O)[C@H]([C@H](O)[C@H](O)CO)O7)cc6)oc45)c3)oc2c1 (stereo in doubt; 9R) | 6.57 (≈ 5.72 µM) |  | 6.61 (≈ 5.75 µM) | 9.05 (≈ 7.88 µM) |  |  |  |
| COc1cc(O)c2c(=O)cc(-c3ccc(OC)c(-c4c(O[C@]5(C(=O)O)C[C@H](O)[C@@H](NC(C)=O)[C@H]([C@H](O)[C@H](O)CO)O5)cc(O)c5c(=O)cc(-c6ccc(O[C@]7(C(=O)O)C[C@H](O)[C@@H](NC(C)=O)[C@H]([C@H](O)[C@H](O)CO)O7)cc6)oc45)c3)oc2c1 (stereo in doubt; 9S) | 0.94 (≈ 0.818 µM) | Non-toxic | 6.99 (≈ 6.08 µM) | 9.34 (≈ 8.13 µM) |  |  |  |
| COc1c(O)cc(O)c2c(=O)cc(-c3ccc(O)cc3)oc12 [4'-HYDROXYWOGONIN] | 8.95 (≈ 29.8 µM) |  | 9.78 (≈ 32.6 µM) | 6.58 (≈ 21.9 µM) |  |  |  |
| COc1cc(O)c2c(=O)cc(-c3ccc(OC)c(-c4c(O)cc(O)c5c(=O)cc(-c6ccc(O)cc6)oc45)c3)oc2c1 [GINKGETIN] | 9.78 (≈ 17.3 µM) | Toxic | 55 (≈ 97.1 µM) | > 100 |  |  |  |

Source: ChEMBL document CHEMBL1138422, “Anti-influenza virus activity of biflavonoids” (Bioorg Med Chem Lett, 2007)
